Measured values taken from the kinase profiling compilation of Christmann-Franck et al. (2016).

Key:
Test in all cases: KINOMEscan competition binding
Conditions in all cases: compound 10.0 µM
[1] = system: ABL1 (human), P00519 [Y253F]
[2] = system: FLT3 (human), P36888 [D835H]
[3] = system: KIT (human), P10721 [V559D/V654A]
[4] = system: ABL1 (human), P00519 [H396P]
[5] = system: RET (human), P07949 [M918T]
[6] = system: RET (human), P07949 [V804M]
[7] = system: EGFR (human), P00533 [752-759 del]
[8] = system: EGFR (human), P00533 [747-751 del / S ins]
[9] = system: EGFR (human), P00533 [T790M/L858R]
[10] = system: FLT3 (human), P36888 [R834Q]
[11] = system: KIT (human), P10721 [L576P]
Sequence of KIT (human), P10721 [L576P] (P10721 whole entry L576P, looked up): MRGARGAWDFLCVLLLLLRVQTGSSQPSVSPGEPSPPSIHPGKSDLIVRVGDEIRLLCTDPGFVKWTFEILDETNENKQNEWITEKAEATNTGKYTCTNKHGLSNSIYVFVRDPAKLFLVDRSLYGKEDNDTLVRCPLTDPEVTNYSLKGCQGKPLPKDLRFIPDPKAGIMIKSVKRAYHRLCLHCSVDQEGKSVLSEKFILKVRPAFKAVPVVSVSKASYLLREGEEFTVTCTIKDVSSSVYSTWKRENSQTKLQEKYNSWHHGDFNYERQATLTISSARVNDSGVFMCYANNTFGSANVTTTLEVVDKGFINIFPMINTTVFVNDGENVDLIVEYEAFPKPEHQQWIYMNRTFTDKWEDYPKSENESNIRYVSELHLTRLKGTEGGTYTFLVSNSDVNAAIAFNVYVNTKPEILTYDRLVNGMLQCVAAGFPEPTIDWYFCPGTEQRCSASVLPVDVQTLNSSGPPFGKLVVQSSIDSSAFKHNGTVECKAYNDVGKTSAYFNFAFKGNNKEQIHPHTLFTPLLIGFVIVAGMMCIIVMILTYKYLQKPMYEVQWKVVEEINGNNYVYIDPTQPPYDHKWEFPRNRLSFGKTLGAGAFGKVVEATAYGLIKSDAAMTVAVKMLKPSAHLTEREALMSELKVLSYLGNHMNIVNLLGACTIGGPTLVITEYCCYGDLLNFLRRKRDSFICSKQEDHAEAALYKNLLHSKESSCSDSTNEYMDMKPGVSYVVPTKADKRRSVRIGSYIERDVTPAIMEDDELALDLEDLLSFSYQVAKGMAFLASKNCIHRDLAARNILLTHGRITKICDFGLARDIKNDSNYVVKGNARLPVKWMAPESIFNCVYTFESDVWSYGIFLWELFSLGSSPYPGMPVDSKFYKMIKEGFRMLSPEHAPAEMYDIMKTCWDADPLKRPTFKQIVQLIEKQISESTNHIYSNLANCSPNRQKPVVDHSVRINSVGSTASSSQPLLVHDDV

[12] = system: MET (human), P08581 [Y1235D]
[13] = system: EGFR (human), P00533 [T790M]

Sequence of RET (human), P07949 [V804M] (P07949 whole entry V804M, looked up): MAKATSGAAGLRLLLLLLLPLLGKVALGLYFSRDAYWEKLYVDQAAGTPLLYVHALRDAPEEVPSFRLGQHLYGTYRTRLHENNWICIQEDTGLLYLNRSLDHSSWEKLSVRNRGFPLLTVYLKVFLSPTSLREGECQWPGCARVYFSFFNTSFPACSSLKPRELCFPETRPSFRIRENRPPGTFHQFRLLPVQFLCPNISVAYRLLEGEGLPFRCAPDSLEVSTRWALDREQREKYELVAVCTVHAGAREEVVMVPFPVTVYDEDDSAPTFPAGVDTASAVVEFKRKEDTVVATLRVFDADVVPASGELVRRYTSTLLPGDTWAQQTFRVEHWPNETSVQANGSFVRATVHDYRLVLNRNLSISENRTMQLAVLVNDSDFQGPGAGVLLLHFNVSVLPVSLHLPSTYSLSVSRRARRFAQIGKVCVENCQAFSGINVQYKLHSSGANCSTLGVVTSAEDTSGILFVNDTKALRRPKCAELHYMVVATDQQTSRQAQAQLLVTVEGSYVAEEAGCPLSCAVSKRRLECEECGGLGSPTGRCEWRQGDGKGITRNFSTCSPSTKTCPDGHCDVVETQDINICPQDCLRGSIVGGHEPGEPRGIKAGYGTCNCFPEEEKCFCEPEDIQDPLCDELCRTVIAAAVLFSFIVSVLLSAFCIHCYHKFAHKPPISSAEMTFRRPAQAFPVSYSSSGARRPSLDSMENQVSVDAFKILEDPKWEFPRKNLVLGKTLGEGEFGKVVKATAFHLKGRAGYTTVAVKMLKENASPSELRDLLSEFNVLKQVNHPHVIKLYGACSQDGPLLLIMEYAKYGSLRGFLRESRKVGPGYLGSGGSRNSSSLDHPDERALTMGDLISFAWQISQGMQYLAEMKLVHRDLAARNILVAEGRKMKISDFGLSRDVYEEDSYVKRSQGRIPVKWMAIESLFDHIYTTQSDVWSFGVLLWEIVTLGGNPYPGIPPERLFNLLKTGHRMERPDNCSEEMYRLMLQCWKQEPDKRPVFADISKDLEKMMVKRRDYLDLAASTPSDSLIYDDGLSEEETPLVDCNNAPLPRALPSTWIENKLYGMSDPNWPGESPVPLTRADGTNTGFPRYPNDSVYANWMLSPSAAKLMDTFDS
Sequence of KIT (human), P10721 [V559D/V654A] (P10721 whole entry V559D/V654A, looked up): as the sequence (P10721 whole entry L576P, looked up) above, with V559D, P576L, V654A counted along it
Sequence of RET (human), P07949 [M918T] (P07949 whole entry M918T, looked up): as the sequence (P07949 whole entry V804M, looked up) above, with M804V, M918T counted along it

Row | Structure (SMILES) | kinase still bound, per cent of control [1] [%] | kinase still bound, per cent of control [2] [%] | kinase still bound, per cent of control [3] [%] | kinase still bound, per cent of control [4] [%] | kinase still bound, per cent of control [5] [%] | kinase still bound, per cent of control [6] [%] | kinase still bound, per cent of control [7] [%] | kinase still bound, per cent of control [8] [%] | kinase still bound, per cent of control [9] [%] | kinase still bound, per cent of control [10] [%] | kinase still bound, per cent of control [11] [%] | kinase still bound, per cent of control [12] [%] | kinase still bound, per cent of control [13] [%]
1 | CC[C@@H]1C(=O)N(C)c2cnc(Nc3ccc(C(=O)NC4CCN(C)CC4)cc3OC)nc2N1C1CCCC1 | 100 | 100 | 100 | 100 | 100 | 100 | – | – | – | – | – | – | –
2 | COc1cc(C)c(Sc2cnc(NC(=O)c3ccc(CNC(C)C(C)C)cc3)s2)cc1C(=O)N1CCN(C(C)=O)CC1 (stereo unspecified) | 100 | 14 | 100 | 100 | 32 | 100 | 100 | 100 | – | – | – | – | –
3 | C=CC(=O)Nc1cccc(Nc2nc(N[C@H]3CC[C@H](N(C)C)CC3)nc3c2ncn3C(C)C)c1 | 62 | 5.4 | 44 | – | 100 | 71 | 82 | 90 | 100 | 8.4 | 33 | 100 | 68
4 | CC1=C(C(=O)Nc2cc3cn[nH]c3cc2F)C(c2ccc(C(F)(F)F)cc2)CC(=O)N1 (stereo unspecified) | 72 | 76 | 92 | – | 15 | 43 | 90 | 81 | 87 | 77 | 93 | 65 | 40
5 | C=CC(=O)Nc1ccc(C(=O)c2sc(Nc3ccc(N4CCN(C)CC4)cc3OC)nc2N)cc1 | 97 | 59 | 100 | – | 100 | 100 | 53 | 41 | 68 | 100 | 81 | 100 | 27
6 | Cc1ccc(NC(=O)c2cccc(C(C)(C)C#N)c2)cc1Nc1ccc2ncn(C)c(=O)c2c1 | 1.4 | 60 | 1.2 | – | 0.4 | 0.15 | 17 | 14 | 99 | 100 | 0.55 | 100 | 79
7 | CNC(=O)Nc1ccc(-c2nc(N3CC4CCC(C3)O4)c3cnn(C4CCC5(CC4)OCCO5)c3n2)cc1 | 99 | 82 | 100 | – | 73 | 100 | 55 | 50 | 100 | 79 | 85 | 24 | 68
8 | C=CC(=O)Nc1cccc(Oc2nc(Nc3ccc(N4CCN(C)CC4)cc3OC)ncc2Cl)c1 | 100 | 4 | 100 | 100 | 100 | 100 | 0.25 | 0 | – | – | – | – | –
9 | C[C@@H](Oc1cc(-n2cnc3ccc(CN4CCN(C)CC4)cc32)sc1C(N)=O)c1ccccc1C(F)(F)F | 69 | 10 | 100 | – | 100 | 100 | 100 | 100 | 78 | 20 | 54 | 98 | 54
10 | Cc1cc([C@@H](C)Nc2ccccc2C(=O)O)c2nc(N3CCOCC3)cc(=O)n2c1 | 100 | 27 | 96 | – | 100 | 100 | 100 | 100 | 99 | 94 | 95 | 78 | 100
11 | Cc1ccc(C(=O)Nc2cccc(C(F)(F)F)c2)cc1Nc1cncc(C(N)=O)c1 | 100 | 100 | 18 | 100 | 100 | 100 | 100 | 100 | – | – | – | – | –
12 | COc1ccc(N(C(=O)Oc2cc(C(=O)Nc3cccc(C(F)(F)F)c3)ccc2C)c2ccnc(Nc3ccc(N4CCN(C)CC4)cc3)n2)c(OC)c1 | 1.3 | 100 | 9 | 3.6 | 0.3 | – | 0.9 | 0.4 | – | – | – | – | –
13 | O=C1Nc2ccc(I)cc2/C1=C/c1cc(Br)c(O)c(Br)c1 | 81 | 40 | 5.7 | – | 100 | 100 | 35 | 50 | 98 | 100 | 6.6 | 72 | 65
14 | COc1cc(N2CCN(C)CC2)ccc1Nc1nc(N)c(C(=O)c2c(Cl)cccc2Cl)s1 | 98 | 99 | 94 | – | 100 | 100 | 89 | 91 | 100 | 100 | 100 | 100 | 100
15 | CN(C)C/C=C/C(=O)Nc1cccc(Nc2ncc3c(n2)N(C)c2ccccc2C(=O)N3C)c1 | 0 | 5.3 | 96 | – | 0.55 | 0.15 | 74 | 77 | 86 | 37 | 33 | 77 | 43
16 | Nc1ccc(-c2ccc3ncc4ccc(=O)n(-c5cccc(C(F)(F)F)c5)c4c3c2)cn1 | 87 | 16 | 100 | – | 79 | 100 | 70 | 67 | 100 | 32 | 51 | 98 | 100
17 | CCN1CCN(Cc2ccc(Nc3ncc4c(n3)N(C)c3ccccc3C(=O)N4C)cc2C(F)(F)F)CC1 | 0.1 | 8.8 | 100 | – | 0.6 | 1.2 | 98 | 95 | 90 | 69 | 46 | 86 | 100
